According to patent US9809799B2, “Methods for inactivating viruses during a protein purification process” (priority 2012, dated 2017):

What was measured:
X-MuLV = X-MuLV virus inactivation using caprylic acid and detergents in test tubes; assay type: cell-based, xenotropic murine leukemia virus; conditions: for time for complete virus inactivation: clarified cell culture
[1] = tested on: Vesicular stomatitis virus (VSV); conditions: cited from earlier work
[2] = tested on: Herpes simplex virus-1 (HSV-1); conditions: 20° C., cell culture harvest broth; cited from earlier work
[3] = tested on: respiratory syncytial virus (RSV); conditions: 0.5%, 4° C., within four hours; cited from earlier work
[4] = tested on: Friend murine leukemia virus (FrMuLV); conditions: 0.5%, 4° C., within four hours; cited from earlier work

CCCCCCCC(=O)O [Caprylate, caprylic acid]
X-MuLV virus inactivation (LRV) (X-MuLV; MAb05 cell culture, 20 mM pH 5.5, time 0 min): 0
X-MuLV virus inactivation (LRV) (X-MuLV; MAb05 cell culture, 20 mM pH 5.5, time 1 min): 2.63
X-MuLV virus inactivation (LRV) (X-MuLV; MAb05 cell culture, 20 mM pH 5.5, time 5 min): ≧3.8
X-MuLV virus inactivation (LRV) (X-MuLV; MAb05 cell culture, 20 mM pH 5.5, time 10 min): ≧3.8
X-MuLV virus inactivation (LRV) (X-MuLV; MAb05 cell culture, 20 mM pH 5.5, time 20 min): ≧3.8
X-MuLV virus inactivation (LRV) (X-MuLV; MAb05 cell culture, 200 mM pH 7, time 0 min): 0
X-MuLV virus inactivation (LRV) (X-MuLV; MAb05 cell culture, 200 mM pH 7, time 1 min): 2.91
X-MuLV virus inactivation (LRV) (X-MuLV; MAb05 cell culture, 200 mM pH 7, time 5 min): ≧3.8
X-MuLV virus inactivation (LRV) (X-MuLV; MAb05 cell culture, 200 mM pH 7, time 10 min): ≧3.8
X-MuLV virus inactivation (LRV) (X-MuLV; MAb05 cell culture, 200 mM pH 7, time 20 min): ≧3.8
X-MuLV virus inactivation (LRV) (X-MuLV; Pure MAb07, 20 mM pH 5.5, time 0 min): 0
X-MuLV virus inactivation (LRV) (X-MuLV; Pure MAb07, 20 mM pH 5.5, time 1 min): ≧3.1
X-MuLV virus inactivation (LRV) (X-MuLV; Pure MAb07, 20 mM pH 5.5, time 5 min): ≧3.1
X-MuLV virus inactivation (LRV) (X-MuLV; Pure MAb07, 20 mM pH 5.5, time 10 min): ≧3.1
X-MuLV virus inactivation (LRV) (X-MuLV; Pure MAb07, 20 mM pH 5.5, time 20 min): ≧3.1
X-MuLV virus inactivation (LRV) (X-MuLV; Pure MAb07, 200 mM pH 7, time 0 min): 0
X-MuLV virus inactivation (LRV) (X-MuLV; Pure MAb07, 200 mM pH 7, time 1 min): ≧3.1
X-MuLV virus inactivation (LRV) (X-MuLV; Pure MAb07, 200 mM pH 7, time 5 min): ≧3.1
X-MuLV virus inactivation (LRV) (X-MuLV; Pure MAb07, 200 mM pH 7, time 10 min): ≧3.1
X-MuLV virus inactivation (LRV) (X-MuLV; Pure MAb07, 200 mM pH 7, time 20 min): ≧3.1
time for complete virus inactivation (X-MuLV; both pH and salinities): requires a minimum of five minutes
inactivation ([1]; 5° C., after 120 minutes): only partial inactivation
time to complete inactivation ([1]; 20° C., cell culture harvest broth): less than 60 minutes
time to complete inactivation [2]: less than 60 minutes

Triton X
X-MuLV virus inactivation (LRV) (X-MuLV; MAb05 cell culture, 0.5%, time 0 min): 0
X-MuLV virus inactivation (LRV) (X-MuLV; MAb05 cell culture, 0.5%, time 1 min): ≧3.1
X-MuLV virus inactivation (LRV) (X-MuLV; MAb05 cell culture, 0.5%, time 5 min): ≧3.1
X-MuLV virus inactivation (LRV) (X-MuLV; MAb05 cell culture, 0.5%, time 10 min): ≧3.1
X-MuLV virus inactivation (LRV) (X-MuLV; MAb05 cell culture, 0.5%, time 20 min): ≧3.1
X-MuLV virus inactivation (LRV) (X-MuLV; Pure MAb07, 0.5%, time 0 min): 0
X-MuLV virus inactivation (LRV) (X-MuLV; Pure MAb07, 0.5%, time 1 min): ≧3.1
X-MuLV virus inactivation (LRV) (X-MuLV; Pure MAb07, 0.5%, time 5 min): ≧3.1
X-MuLV virus inactivation (LRV) (X-MuLV; Pure MAb07, 0.5%, time 10 min): ≧3.1
X-MuLV virus inactivation (LRV) (X-MuLV; Pure MAb07, 0.5%, time 20 min): ≧3.1
time for complete virus inactivation (X-MuLV; 0.5%): complete virus inactivation after one minute
Log 10 reduction values [3]: > 5.4
Log 10 reduction values [4]: > 3.8
